Data published in US20240376048A1 (Celgene Corporation, priority 2021, published 2024).

Molecular target: S1P5 (Homo sapiens, UniProt Q9H228)
Assay: [35S]-GTPγS binding assay (S1P5 agonism), CHO cell membranes
Assay type: biochemical
Conditions: membranes of CHO cells expressing recombinant S1P5 receptors, measure of S1P5 agonism
Protocol: CHO cells expressing recombinant S1P5 receptors were cultured in 500 cm^2 culture trays and, once confluent, rinsed and detached with cell-lifting buffer (10 mM HEPES, 154 mM NaCl, 6.85 mM EDTA, pH 7.4). Cells were then pelleted by centrifugation, resuspended, and homogenized in membrane preparation buffer (10 mM HEPES and 10 mM EDTA, pH 7.4) using a Polytron PT 1200E homogenizer (Kinematica, Luzern, Switzerland). Cellular proteins were pelleted by centrifugation at 48,000×g at 4° C. for 30 minutes. The resulting supernatant was discarded, and the pellet was re-suspended again in membrane preparation buffer, homogenized for a second time, and then centrifuged again as described above. The final cellular protein pellet was suspended in ice cold resuspension buffer (10 mM HEPES and 0.1 mM EDTA, pH 7.4), divided into aliquots, and stored at −80° C. until use.
Functional binding assays for [^35S]-GTPγS were performed in 96-well non-binding surface plates with a final volume of 200 μL. The test compounds were serially diluted in DMSO and added to assay plates using a Tecan D300E digital printer with a total volume of […]. The control sphingosine-1-phosphate (S1P) was prepared separately by preparing a 400 μM stock solution from a 100 nmol pellet of S1P in 10 mM Na2CO3 with 2% […]. The serial dilution of S1P was done using complete assay buffer (20 mM HEPES, 10 mM MgCl2, 100 mM NaCl, 1 mM EDTA, 0.1% fatty acid free bovine serum albumin (BSA), and 30 μg/mL saponin, pH 7.4) and transferred to wells already containing 0.4 μL DMSO. All the wells were then loaded to a total volume of 40 μL of complete assay buffer, except the non-specific binding (NSB) wells. For NSB wells, 40 μL/well of 50 μM GTPγS (Sigma Aldrich, cat #G8634, St. Louis, MO) was added to wells containing 0.4 μL of DMSO. The assay was started by the addition of 120 μL/well of CHO-SlP receptor membrane solution containing 40 μg/mL of membrane protein, 16.67 μM guanosine diphosphate (GDP; Sigma Aldrich, cat #G7127, St. Louis, MO), and 2.5 mg/mL of WGA PVT SPA beads in complete buffer. Assay plates were then sealed and incubated at room temperature with gentle agitation for 30 minutes. Next, 40 µL/well of 1 nM of [^35S]-GTPγS (PerkinElmer, cat #NEG030X25OUC, Waltham, MA) in basic assay buffer (20 mM HEPES, 10 mM MgCl2, 100 mM NaCl, and 1 mM EDTA, pH7.4) was added to the assay plates to yield a final concentration of 200 pM and the plates were further incubated for 40 minutes at room temperature with gentle agitation. The assay was terminated by centrifugation of the plates at 1000 rpm for 3 minutes using an Eppendorf 5810R centrifuge (Eppendorf, Hamburg, Germany) and G protein bound radioactivity was quantitated using a MicroBeta2 microplate scintillation counter (PerkinElmer, Waltham, MA). As G protein bound radioactivity directly correlates to receptor activation and coupling to the G protein, this assay is a measure of S1P5 agonism.

Chain of S1P5 (Q9H228 whole entry, species assumed): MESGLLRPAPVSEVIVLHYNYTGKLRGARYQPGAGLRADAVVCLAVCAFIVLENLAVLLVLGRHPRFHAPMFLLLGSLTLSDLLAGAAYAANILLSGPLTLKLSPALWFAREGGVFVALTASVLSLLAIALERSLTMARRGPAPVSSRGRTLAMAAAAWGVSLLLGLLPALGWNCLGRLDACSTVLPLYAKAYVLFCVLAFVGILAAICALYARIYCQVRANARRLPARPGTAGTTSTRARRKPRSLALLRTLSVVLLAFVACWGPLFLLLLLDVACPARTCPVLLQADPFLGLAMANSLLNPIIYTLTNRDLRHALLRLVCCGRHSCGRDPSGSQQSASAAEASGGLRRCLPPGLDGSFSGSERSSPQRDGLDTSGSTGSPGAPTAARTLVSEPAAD

Row | SMILES | EC50 [nM]
1 | CC1CC(C(=O)O)CCN1C1CCc2cc(OCc3c(Cl)cccc3Cl)ccc21 (stereo not shown) [Compound 30, 1-(5-((2,6-dichlorobenzyl)oxy)-2,3-dihydro-1H-inden-1-yl)-2-methylpiperidine-4-carboxylic acid] | 10 to 100
2 | CC1CC(C(=O)O)CC(C)N1C1CCc2cc(OCc3c(Cl)cccc3Cl)ccc21 (stereo not shown) [Compound 31, 1-(5-((2,6-dichlorobenzyl)oxy)-2,3-dihydro-1H-inden-1-yl)-2,6-dimethylpiperidine-4-carboxylic acid] | 10 to 100
3 | O=C(O)C1CCN(C2CCc3cc(OCc4c(Cl)cccc4Cl)cc(F)c32)CC1 (stereo not shown) [Compound 32, 1-(5-((2,6-dichlorobenzyl)oxy)-7-fluoro-2,3-dihydro-1H-inden-1-yl)piperidine-4-carboxylic acid] | 1 to 10
4 | O=C(O)C1CCN(C2CCc3cc(OCc4c(Cl)cccc4Cl)c(F)cc32)CC1 (stereo not shown) [Compound 33, 1-(5-((2,6-dichlorobenzyl)oxy)-6-fluoro-2,3-dihydro-1H-inden-1-yl)piperidine-4-carboxylic acid] | 1 to 10
5 | O=C(O)C1CCN(C2CCc3c2ccc(OCc2c(Cl)cccc2Cl)c3F)CC1 (stereo not shown) [Compound 34, 1-(5-((2,6-dichlorobenzyl)oxy)-4-fluoro-2,3-dihydro-1H-inden-1-yl)piperidine-4-carboxylic acid] | ≤ 1

Results, then the molecule that gave them:

Row | EC50 [nM] | SMILES
6 | ≤ 1 | Cc1cc(OCc2c(Cl)cccc2Cl)cc2c1C(N1CCC(C(=O)O)CC1)CC2 (stereo not shown) [Compound 35, 1-(5-((2,6-dichlorobenzyl)oxy)-7-methyl-2,3-dihydro-1H-inden-1-yl)piperidine-4-carboxylic acid]
7 | ≤ 1 | Cc1c(OCc2c(Cl)cccc2Cl)ccc2c1CCC2N1CCC(C(=O)O)CC1 (stereo not shown) [Compound 36, 1-(5-((2,6-dichlorobenzyl)oxy)-4-methyl-2,3-dihydro-1H-inden-1-yl)piperidine-4-carboxylic acid]
8 | 1 to 10 | Cc1cc2c(cc1OCc1c(Cl)cccc1Cl)CCC2N1CCC(C(=O)O)CC1 (stereo not shown) [Compound 37, 1-(5-((2,6-dichlorobenzyl)oxy)-6-methyl-2,3-dihydro-1H-inden-1-yl)piperidine-4-carboxylic acid]
9 | 1 to 10 | CC1CC(N2CCC(C(=O)O)CC2)c2ccc(OCc3c(Cl)cccc3Cl)cc21 (stereo not shown) [Compound 38, 1-(5-((2,6-dichlorobenzyl)oxy)-3-methyl-2,3-dihydro-1H-inden-1-yl)piperidine-4-carboxylic acid]
10 | 10 to 100 | CC1(C)CC(N2CCC(C(=O)O)CC2)c2ccc(OCc3c(Cl)cccc3Cl)cc21 (stereo not shown) [Compound 39]
